Laboratory results published in patent US6774121B1, “Phospholipid prodrugs of anti-proliferative drugs” (D-Pharm, Ltd., priority 1999, dated 2004).
Read-outs that look alike come from different tables or passages of the source.

Assays:
[1] = test system: rat C6 glioma cell line; assay: MTT cell growth inhibition, C6 glioma cells (Example 4); format: cell-based; settings: Rattus norvegicus, C6 glioma; 72 hours, MTT assay; read-out: EC50, nMol C6 glioma
Experimental: A series of methotrexate derivatives were screened for their inhibitory effect on cell growth. Three tumor cell lines were used for this screen: i) human leukemia cell line CCRF-CEM which is MTX-sensitive (herein denoted as CEM), ii) a mutant of CEM cell line which is MTX-resistant due to a mutation in the RFC (herein denoted as CEM-MTX; provided by Dr. […], Technion, Israel), and iii) rat C6 glioma cell line. Cells were seeded at a density of 10^4 cells/ml in RPMI medium supplemented with 10% FCS in 96 well plates. The cultured cells were incubated, during their linear growth phase, in the presence and absence of various concentrations of MTX derivatives. The tested compounds were prepared as 1 mM stock in absolute ethanol or DMSO and were diluted into the medium. The highest vehicle presence in the assay was 5% of the vehicle. After 72 hours at 37° C. the cytotoxic effect on the cells was estimated by using the colorimetric MTT assay (Mosmann (1983) J. Immunol Methods 65: 55-63) that measures mitochondrial reductase activity and serves for quantitative assessment of cellular viability. […] The EC50 values were calculated from dose response curves for each tested compound.

[2] = test system: Wild type human leukemia CEM cells; assay: MTT cytotoxicity with and without Leucovorin, CEM cells (Example 6); format: cell-based; settings: CCRF-CEM, 72 hours
Experimental: Leucovorin is a reduced folate, used in chemotherapy with high doses of methotrexate for ‘rescue’ of host from toxicity.
Wild type human leukemia CEM cells or the MTX-resistant mutant cells, CEM-MTX, were plated into 96 well plates containing RPMI, 10% FCS at a concentration of 5×10^4 cells/ml. […] Leucovorin, at a final concentration of 10 μM, was added to some of the plates as indicated. The plates were incubated for 72 hours (37° C., 5% CO2) before being assayed for viability using the colorimetric MTT assay (Mosmann (1983) J. Immunol Methods 65: 55-63).

[3] = test system: L1210; assay: MTT cytotoxicity on tumor cell lines, L1210 (Example 8); format: cell-based; settings: L1210, lymphocytic leukemia (mouse), 72 hours
Experimental: Cell viability was analyzed after 72 hours incubation (37° C., 5% CO2) using the colorimetric MTT assay (Mosmann (1983) J. Immunol Methods 65: 55-63).

[4] = test system: L1210 murine leukemia cells; assay: Survival of mice transplanted i.p. with L1210 leukemia cells; format: in vivo, mouse
Experimental: The anti-tumor effects of DP-MTX were evaluated in vivo on mice transplanted with L1210 murine leukemia cells.
Mice of strain B6D2F 1/J (stock number 100006), which are F1 cross of C57/BJ×DBA/2J, were purchased from The Jackson Laboratory (JAX Mice & Mouse Model Related Services, […], USA). Animals were allowed 10 days adjustment time at our animal care facility before initiation of the experiment.
Mice were transplanted with 1×10^6 L1210 (mouse leukemia; ATCC# CCL-219) or L1210MTX (RFC-mediated MTX resistant L1210 mutant; provided by Dr. Y. Assraf, Technion, Israel) cells by injection into the peritoneum (i.p.) (day 1). […] Another group of 8 animals were injected with vehicle solution (2% propylene-glycol, 0.2% Tween-80 in PBS) and serve as control group. […] Mice survival was monitored daily until the end of the experiment on day 21.

Question: Which results are given for CN(Cc1cnc2nc(N)nc(N)c2n1)c1ccc(C(=O)N[C@@H](CCC(=O)O)C(=O)O)cc1 [MTX, Methotrexate]?
Answer: EC50 [1]: 46 nM; EC50 ([2]; 10 μM Leucovorin, read-out: EC50, nMol + 10 μM Leucovorin): 910 ± 378 nM; EC50 ([2]; read-out: EC50, nMol No Leucovorin): 23 ± 13 nM; EC50 [3]: 13 nM; mice surviving at the end of the experiment, on day 21 ([4]; 3 mg/Kg MTX or molar equivalent, i.p. every two days, day 3 to 17): one; mortality caused by the treatment by itself ([4]; 3 mg/Kg i.p.): no mortality; day on which animal death started ([4]; 3 mg/Kg i.p. every two days, day 3 to 17): 15 days
